Measurements: paper PMC4440699 (MedChemComm, 2014)

Legend:
acetylated H3K9 = details: MV-4-11 cells
MV-4-11 leukemia cells = test: Growth inhibition of cultured MV-4-11 leukemia cells; assay type: cell-based; details: for growth inhibitor activity in the MV-4-11 cell line: 24 hours exposure, 1 to 100 μM
HDAC8 = target: T1, HDAC8 (Homo sapiens, UniProt Q9BY41); test: HDAC8 inhibition, human recombinant HDAC isoform survey; assay type: biochemical
T1 sequence (Q9BY41 1-377): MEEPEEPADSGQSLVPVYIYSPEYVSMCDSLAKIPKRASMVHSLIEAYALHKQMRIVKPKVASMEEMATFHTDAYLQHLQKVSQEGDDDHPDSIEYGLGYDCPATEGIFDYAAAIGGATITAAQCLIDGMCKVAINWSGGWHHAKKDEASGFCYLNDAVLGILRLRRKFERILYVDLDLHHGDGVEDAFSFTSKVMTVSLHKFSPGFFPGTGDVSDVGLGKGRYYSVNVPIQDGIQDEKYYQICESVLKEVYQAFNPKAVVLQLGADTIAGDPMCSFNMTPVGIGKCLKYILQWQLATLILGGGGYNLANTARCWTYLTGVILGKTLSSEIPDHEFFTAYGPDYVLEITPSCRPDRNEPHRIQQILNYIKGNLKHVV

Solubility observations = assay type: physicochemical; details: greater concentration required more than 1% DMSO
[1] = Zinc binding affinity by isothermal calorimetry; details: ITC, 25 °C
p21^WAF1/CIP1 = test: p21WAF1/CIP1 levels in MV-4-11 leukemia cells by Western blotting; assay type: cell-based; details: MV-4-11 cells
HDAC1 = HDAC1 (Homo sapiens, UniProt Q13547); test: HDAC1 inhibition, human recombinant HDAC isoform survey; assay type: biochemical
HDAC10 = target: T2, HDAC10 (Homo sapiens, UniProt Q969S8); test: HDAC10 inhibition, human recombinant HDAC isoform survey; assay type: biochemical; details: from % inhibition at 20 μM
T2 sequence (Q969S8 1-669): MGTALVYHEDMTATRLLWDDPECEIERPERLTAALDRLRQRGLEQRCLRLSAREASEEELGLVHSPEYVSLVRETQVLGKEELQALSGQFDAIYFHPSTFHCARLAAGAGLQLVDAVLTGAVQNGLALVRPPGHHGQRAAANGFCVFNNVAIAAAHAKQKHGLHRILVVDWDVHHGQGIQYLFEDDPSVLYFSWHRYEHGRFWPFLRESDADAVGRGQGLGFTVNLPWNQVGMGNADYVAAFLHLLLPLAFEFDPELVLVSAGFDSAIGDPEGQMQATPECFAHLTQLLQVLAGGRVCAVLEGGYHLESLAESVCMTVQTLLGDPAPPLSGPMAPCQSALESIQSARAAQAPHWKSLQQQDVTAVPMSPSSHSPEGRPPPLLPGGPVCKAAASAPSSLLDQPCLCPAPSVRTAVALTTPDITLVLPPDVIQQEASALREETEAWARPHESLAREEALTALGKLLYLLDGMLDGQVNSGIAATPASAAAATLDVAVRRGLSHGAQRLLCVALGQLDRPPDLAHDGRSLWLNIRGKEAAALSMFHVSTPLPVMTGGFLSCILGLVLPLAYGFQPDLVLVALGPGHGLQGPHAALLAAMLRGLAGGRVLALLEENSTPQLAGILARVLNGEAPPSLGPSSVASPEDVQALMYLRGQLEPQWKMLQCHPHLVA

HDAC1, sequence (Q13547 whole entry, canonical isoform): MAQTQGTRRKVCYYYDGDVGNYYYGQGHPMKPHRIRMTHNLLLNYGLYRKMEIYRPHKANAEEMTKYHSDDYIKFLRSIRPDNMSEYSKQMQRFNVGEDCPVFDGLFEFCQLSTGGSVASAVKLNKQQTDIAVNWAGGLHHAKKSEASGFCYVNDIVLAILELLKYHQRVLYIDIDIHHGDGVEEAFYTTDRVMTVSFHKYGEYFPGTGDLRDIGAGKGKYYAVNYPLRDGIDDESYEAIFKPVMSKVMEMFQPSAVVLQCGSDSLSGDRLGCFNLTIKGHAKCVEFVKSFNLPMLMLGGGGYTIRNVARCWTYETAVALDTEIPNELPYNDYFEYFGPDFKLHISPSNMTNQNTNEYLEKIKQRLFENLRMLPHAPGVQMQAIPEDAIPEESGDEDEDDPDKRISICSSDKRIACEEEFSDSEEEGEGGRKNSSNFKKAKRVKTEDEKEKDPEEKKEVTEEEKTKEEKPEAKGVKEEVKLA

O=C(NC(c1ccccc1)c1ccccc1)c1coc(-c2ccccc2O)n1 [Compound 10]
amount of acetylated H3K9 induced relative to 0.5 μM of SAHA (acetylated H3K9): comparable amount | concentration producing an increase in H3K9 acetylation equivalent to 0.5 μM SAHA (acetylated H3K9; Western blot): 2.5 µM | concentration with measurable increase in cellular levels of acetylated H3K9 (acetylated H3K9; Western blot): ≥ 2.5 µM | change in H3K9 acetylation (acetylated H3K9; concentrations between 1.0 and 10 μM): dose-dependent change in acetylation | difference in cellular IC50 value against MV4-11 cells between SAHA and compound 10 (MV-4-11 leukemia cells; SAHA 0.7 μM vs 10 7.5 μM): 10.7 fold | inhibitory activity against HDAC8 (HDAC8): very poor inhibitory activity | solution concentration attainable without more than 1% DMSO (Solubility observations): ≤ 20 µM | ΔG, binding to Zn^++ [1]: -5.103 kcal/mol | KA, binding to Zn^++ ([1]; compound in methanol, zinc in 50mM HEPES pH 7.0): 4,937 M^-1 | amount of p21Waf1/CIP1 induced relative to 0.5 μM of SAHA (p21^WAF1/CIP1): comparable amount | p21^WAF1/CIP1 expression (p21^WAF1/CIP1; concentrations between 1.0 and 10.0 μM): dose-dependent increase | IC50 (HDAC1): < 20 µM

O=C(NCCC(c1ccccc1)c1ccccc1)c1coc(-c2ccccc2O)n1 [Compound 12]
growth inhibitor activity in the MV-4-11 cell line (MV-4-11 leukemia cells): inactive

O=C(Nc1ccc(-c2ccccc2)cc1)c1coc(-c2ccccc2O)n1 [Compound 13]
growth inhibitor activity in the MV-4-11 cell line (MV-4-11 leukemia cells): inactive

O=C(NCc1ccc(-c2ccccc2)cc1)c1coc(-c2ccccc2O)n1 [Compound 14]
growth inhibitor activity in the MV-4-11 cell line (MV-4-11 leukemia cells): inactive

O=C(NCCCCNC(=S)NCCC(c1ccccc1)c1ccccc1)c1coc(-c2ccccc2O)n1 [Compound 19]
isoform selectivity (HDAC10): moderately selective for HDAC10

O=C(Nc1ccccc1)c1ccc(CNC(=O)c2coc(-c3ccccc3O)n2)cc1 [Compound 23]
isoform selectivity (HDAC10): moderately selective for HDAC10

O=C(CNC(=O)c1coc(-c2ccccc2O)n1)Nc1ccccc1 [Compound 24]
isoform selectivity (HDAC10): moderately selective for HDAC10
